Test results taken from patent US20090047682A1, “Method of detecting and predicting bronchodilatory response to beta agonist” (COUNCIL OF SCIENTIFIC AND INDUSTRIAL RESEARCH, priority 2004, published 2009).

Tested on: β2AR
Conditions: Indian population; χ2=11.28, df=2, p=0.004

## CC(C)(C)NCC(O)c1ccc(O)c(CO)c1 (stereo not shown) [salbutamol]
  association of responder status to treatment with genotype at β2AR gene: strongly associated
